Assay results published in article PMC10177590, “Canine Intestinal Organoids as a Novel In Vitro Model of Intestinal Drug Permeability: A Proof-of-Concept Study” (Cells, 2023).
Read-outs that look alike come from different tables or passages of the source.

Columns and labels:
[1] = test system: canine-colonoid-derived monolayers; assay: Bidirectional transport (Papp) across canine-colonoid-derived monolayers; format: in vitro ADME, dog; settings: for Papp A→B / Papp B→A: Dog colonoid, read-out: Papp × 10^−6; for Papp B→A: BL→AP pH 7.4/7.4, individual wells
Protocol: (§1) After seven days of culture (Figure 3A), the 3D colonoids were harvested from the Matrigel® using the Corning™ cell recovery solution. Matrigel® plugs were dissociated by repeated pipetting after adding 500 μL of pre-chilled cell recovery solution into each well, and the plate was incubated for 30 min at 4 °C to dissolve the Matrigel®. The mixture was then transferred to a 15 mL tube and centrifuged at 100× g for 5 min at 4 °C. The organoid pellet was resuspended in 1 mL TrypLE Express and incubated at 37 °C for 10 min with shaking. To stop the TrypLE action, 6 mL of DMEM/F12 was added to the mixture before centrifugation at 100× g for 5 min at 4 °C. The supernatant was removed, and the pellet was resuspended with CMGF+ media. The harvested colonoid cell suspension was filtered through a sterile cell strainer (40 µm nylon mesh, Thermo Fisher Scientific) to obtain a single-cell suspension. The viability of dissociated cells was assessed by the trypan blue exclusion test [58, 59], and cells were counted manually using a hemocytometer (Hausser Scientific, Horsham, PA, USA). The Transwell™ inserts were pre-coated with Matrigel® (100 μg/mL; Corning®) and rat tail collagen I (30 μg/mL; Fisher Scientific) to promote adhesion, growth, and differentiation in CMGF+ media at 37 °C for 1 h. Dissociated colonoid cells (Passages #15–20) were seeded at a density of 100,000 cells/cm^2 in pre-coated inserts and allowed to grow and differentiate in the presence of CMGF+ media for 10 to 12 days before the experiments (Figure 3B). The CMGF+ culture medium was changed every other day. The structural integrity of the cell monolayer was monitored every other day for up to two weeks by phase-contrast microscopy.
(§2) All transport experiments were conducted at room temperature following the conditions outlined in earlier reports during sampling and incubation [66, 67, 68]. The culture media were aspirated from both AP (0.2 mL) and BL (0.7 mL) chambers. For both the canine colonoid and the Caco-2 monolayer, the BL chambers with HBSS buffer at pH 7.4 (0.7 mL) and the AP chambers with appropriate HBSS buffer at pH 6.8 or 7.4 (0.2 mL) (canine) or pH 6.8 (0.2 mL) (Caco-2 cells) were rinsed and equilibrated at room temperature for 30 min. Two to three wells per drug/pH/direction were used for data generation.
(§3) After Caco-2 and canine colonoid monolayers were equilibrated in the transport buffer for 30 min, the buffer was aspirated from the AP (0.2 mL) and BL (0.7 mL) chambers. The media of the AP chamber were replaced with 0.2 mL of the drug solution prepared in an appropriate transport buffer. HBSS buffer with pH 7.4 was added to the BL chambers. At pre-defined time points (15, 30, 45, 60, 90, and 120 min), samples of 100 µL buffer were collected from the receiver chamber (BL) and replaced with the same volume (i.e., 100 µL) of transport buffer at pH 7.4. For the AP side, drug concentrations of the donor solution were measured prior to introduction into the well and at the end of the study (120 min). In so doing, no buffer replacement was needed. All study samples were labeled and stored at −80 °C until further analysis.
(§4) The same procedures described above for studying AP→BL permeability were followed when studying BL→AP, with the only difference being that the donor chamber was now the BL side and the receiver chamber was now the AP side. At pre-determined time intervals (15, 30, 45, 60, 90, and 120 min), 100 µL of buffer was removed from the receiver chamber (AP) and replaced with the same volume (i.e., 100 µL) of transport buffer with the specified pH. The collected samples were stored at −80 °C until further analysis by mass spectrometry (details below).

[2] = low permeability, high solubility; cited from earlier work
[3] = Bidirectional transport (Papp) across Caco-2 cell monolayers; format: in vitro ADME, human; settings: human; for Papp A→B at 120 min, 0.04 mg/mL: Caco-2, pH 6.8, 0.04 mg/mL (58.4 μM); for Papp A→B at 120 min, 0.4 mg/mL: Caco-2, pH 6.8, 0.4 mg/mL (584.1 μM); for Papp B→A at 120 min, 0.04 mg/mL: Caco-2, pH 7.4, 0.04 mg/mL (58.4 μM); for Papp B→A at 120 min, 0.4 mg/mL: Caco-2, pH 7.4, 0.4 mg/mL (584.1 μM); for Papp A→B at 120 min, 1 mg/mL: Caco-2, pH 6.8, 1 mg/mL (3380 μM); for Papp B→A at 120 min, 1 mg/mL: Caco-2, pH 7.4, 1 mg/mL (3380 μM)
Protocol: (§5) The harvested Caco-2 cell suspension was then filtered through a sterile cell strainer (40 µm nylon mesh, Thermo Fisher Scientific) to obtain a single-cell suspension. Caco-2 cell viability and concentration were determined by a trypan blue exclusion test [57, 58]. Single Caco-2 cells (passages 50–55) were seeded at a density of 75,000 cells/cm^2 in the apical chamber of the insert and cultured in CCCM media. The culture medium in both apical and basolateral chambers was changed every other day. In the transport studies, the monolayers were utilized 18 to 20 days after plating.
as §2, §3, §4
(§6) The uncorrected Papp estimates for the three drugs of interest (Papp-uncorrected, cm/s) were calculated as follows (Equation (2)) [7]: (2) Papp-uncorrected =VR/(A×C0)×dC/dt where VR is the volume in the receiver chamber (mL), A is the surface area of the filter ( 0.33 cm^2 ), C0 is the initial drug concentration (µM) in the donor chamber, and dC/dt is the maximum slope of the line defining the cumulative drug concentration (mg/mL) vs. time (min) in the receiver compartment. […] The estimated concentrations in the receiver compartment were corrected for drug removed during prior samples.
(§7) These Papp value estimates were further corrected for the percent recovery (Rec (%)) in each well [71, 72] as follows (Equation (3)): (3) Rec (%) =mg donor hr 2+total mg receiver hr 2/mg drug introduced into the donor compartment at hr 0
(§8) The corrected Papp estimates reported herein were, therefore, calculated as follows (Equation (4)):(4) Papp= Papp−uncorrected /Rec (%)

Caco-2 cell monolayers = assay: as above; format: in vitro ADME, human
Protocol: as §5, §2, §3, §4, §6, §7, §8

[4] = Bidirectional transport (Papp) across canine-colonoid-derived monolayers; format: in vitro ADME, dog; settings: dog, Dog colonoid
Protocol: as §1, §2, §3, §4

[5] = parameters: method as in earlier work; settings: ref 65 (PubChem), cited from earlier work
P-gp = settings: cited from earlier work
[6] = Human Caco-2, AP→BL pH 6.8/7.4, N = 2, read-out: Papp × 10^−6 Avg
[7] = Human Caco-2, AP→BL pH 6.8/7.4, individual wells, read-out: Papp × 10^−6
[8] = Human Caco-2, BL→AP pH 7.4/7.4, N = 2, read-out: Papp × 10^−6 Avg
[9] = Human Caco-2, BL→AP pH 7.4/7.4, individual wells, read-out: Papp × 10^−6

For CC(C)NCC(O)COc1ccc(CC(N)=O)cc1 (centres unmarked) [Atenolol], the “drug in the receiver compartment” value ([1]; 2.0 mg/mL, canine colonoids, irrespective of pH or direction (AP→BL or BL→AP)) is listed as “not detectable” and the “BCS Class” value [2] is listed as “Class III”.
With COCCc1ccc(OCC(O)CNC(C)C)cc1 (centres unmarked) [Metoprolol] the Papp A→B at 120 min, 0.04 mg/mL [3, 6] was 15.3 ×10⁻⁶ cm/s, the Papp A→B at 120 min, 0.04 mg/mL [3, 7] was 17.5 ×10⁻⁶ cm/s and the Papp A→B at 120 min, 0.4 mg/mL [3, 6] was 17.9 ×10⁻⁶ cm/s. The Papp A→B at 120 min, 0.4 mg/mL [3, 7] was 19.3 ×10⁻⁶ cm/s, the Papp B→A at 120 min, 0.04 mg/mL [3, 8] was 17.7 ×10⁻⁶ cm/s and the Papp B→A at 120 min, 0.04 mg/mL [3, 9] was 16.3 ×10⁻⁶ cm/s. For the same compound, the Papp B→A at 120 min, 0.4 mg/mL [3, 8] was 13.1 ×10⁻⁶ cm/s, the Papp B→A at 120 min, 0.4 mg/mL [3, 9] was 13.8 ×10⁻⁶ cm/s and the “Papp × 10^−6” value (Caco-2 cell monolayers; 0.04 mg/mL (58.4 μM), Human Caco-2, AP→BL pH 6.8/7.4, individual wells) was 13.13 × 10^−6 cm/s. The “Papp × 10^−6” value (Caco-2 cell monolayers; 0.04 mg/mL (58.4 μM), Human Caco-2, BL→AP pH 7.4/7.4, individual wells) was 19.03 × 10^−6 cm/s, the “Papp × 10^−6” value (Caco-2 cell monolayers; 0.4 mg/mL (584.1 μM), Human Caco-2, AP→BL pH 6.8/7.4, individual wells) was 16.45 × 10^−6 cm/s and the “Papp × 10^−6” value (Caco-2 cell monolayers; 0.4 mg/mL (584.1 μM), Human Caco-2, BL→AP pH 7.4/7.4, individual wells) was 12.37 × 10^−6 cm/s. It also gave a Papp A→B at 120 min, 0.04 mg/mL ([4]; pH 6.8, 0.04 mg/mL (58.4 μM), AP→BL pH 6.8/7.4, N = 2, read-out: Papp × 10^−6 Avg) of 17.7 ×10⁻⁶ cm/s, a Papp A→B at 120 min, 0.04 mg/mL ([4]; pH 6.8, 0.04 mg/mL (58.4 μM), AP→BL pH 6.8/7.4, individual wells, read-out: Papp × 10^−6) of 16.8 ×10⁻⁶ cm/s and a Papp A→B at 120 min, 0.4 mg/mL ([4]; pH 6.8, 0.4 mg/mL (584.1 μM) ± FITC-dextran 200 µg/mL, AP→BL pH 6.8/7.4, individual wells, read-out: Papp × 10^−6) of 8.33 ×10⁻⁶ cm/s. The Papp A→B at 120 min, 0.4 mg/mL ([4]; pH 6.8, 0.4 mg/mL (584.1 μM) ± FITC-dextran 200 µg/mL, AP→BL pH 6.8/7.4, read-out: Papp × 10^−6 Avg) was 8.72 ×10⁻⁶ cm/s, the Papp A→B at 120 min, 0.04 mg/mL ([4]; pH 7.4, 0.04 mg/mL (58.4 μM), AP→BL pH 7.4/7.4, N = 2, read-out: Papp × 10^−6 Avg) was 13.5 ×10⁻⁶ cm/s and the Papp A→B at 120 min, 0.04 mg/mL ([4]; pH 7.4, 0.04 mg/mL (58.4 μM), AP→BL pH 7.4/7.4, individual wells, read-out: Papp × 10^−6) was 13.4 ×10⁻⁶ cm/s. For the same compound, the Papp B→A at 120 min, 0.04 mg/mL ([4]; pH 7.4, 0.04 mg/mL (58.4 μM), BL→AP pH 7.4/7.4, N = 2, read-out: Papp × 10^−6 Avg) was 11.9 ×10⁻⁶ cm/s, the Papp B→A at 120 min, 0.04 mg/mL ([4]; pH 7.4, 0.04 mg/mL (58.4 μM), BL→AP pH 7.4/7.4, individual wells, read-out: Papp × 10^−6) was 11.2 ×10⁻⁶ cm/s and the Papp A→B at 120 min, 0.4 mg/mL ([4]; pH 7.4, 0.4 mg/mL (584.1 μM) ± FITC-dextran 200 µg/mL, AP→BL pH 7.4/7.4, individual wells, read-out: Papp × 10^−6) was 9.9 ×10⁻⁶ cm/s. The Papp A→B at 120 min, 0.4 mg/mL ([4]; pH 7.4, 0.4 mg/mL (584.1 μM) ± FITC-dextran 200 µg/mL, AP→BL pH 7.4/7.4, read-out: Papp × 10^−6 Avg) was 10.5 ×10⁻⁶ cm/s, the Papp B→A at 120 min, 0.4 mg/mL ([4]; pH 7.4, 0.4 mg/mL (584.1 μM) ± FITC-dextran 200 µg/mL, BL→AP pH 7.4/7.4, individual wells, read-out: Papp × 10^−6) was 9.88 ×10⁻⁶ cm/s and the Papp B→A at 120 min, 0.4 mg/mL ([4]; pH 7.4, 0.4 mg/mL (584.1 μM) ± FITC-dextran 200 µg/mL, BL→AP pH 7.4/7.4, read-out: Papp × 10^−6 Avg) was 9.91 ×10⁻⁶ cm/s. The Papp A→B ([1]; 0.04 mg/mL (58.4 μM), AP→BL pH 6.8/7.4, individual wells) was 18.5 ×10⁻⁶ cm/s, the Papp A→B ([1]; 0.04 mg/mL (58.4 μM), AP→BL pH 7.4/7.4, individual wells) was 13.5 ×10⁻⁶ cm/s and the Papp B→A ([1]; 0.04 mg/mL (58.4 μM)) was 12.7 ×10⁻⁶ cm/s. The Papp A→B ([1]; 0.4 mg/mL (584.1 μM) ± FITC-dextran 200 µg/mL, AP→BL pH 6.8/7.4, individual wells) was 9.1 ×10⁻⁶ cm/s, the Papp A→B ([1]; 0.4 mg/mL (584.1 μM) ± FITC-dextran 200 µg/mL, AP→BL pH 7.4/7.4, individual wells) was 11.2 ×10⁻⁶ cm/s and the Papp B→A ([1]; 0.4 mg/mL (584.1 μM) ± FITC-dextran 200 µg/mL) was 9.94 ×10⁻⁶ cm/s. For the same compound, the “Aqueous Solubility (25 °C)” value ([5]; 25 °C) was >1000 mg/mL, the “Log P” value [5] was 2.15 and the P-gp substrate status (P-gp) was “not a substrate for P-gp transport”.
Work on CC(C)NCC(O)COc1cccc2ccccc12 (centres unmarked) [Propranolol] yielded a Papp A→B at 120 min, 1 mg/mL [3, 6] of 12.4 ×10⁻⁶ cm/s, a Papp A→B at 120 min, 1 mg/mL [3, 7] of 12.1 ×10⁻⁶ cm/s and a Papp B→A at 120 min, 1 mg/mL [3, 8] of 11.9 ×10⁻⁶ cm/s. The Papp B→A at 120 min, 1 mg/mL [3, 9] was 11.4 ×10⁻⁶ cm/s, the “Papp × 10^−6” value (Caco-2 cell monolayers; 1 mg/mL (3380 μM), Human Caco-2, AP→BL pH 6.8/7.4, individual wells) was 12.75 × 10^−6 cm/s and the “Papp × 10^−6” value (Caco-2 cell monolayers; 1 mg/mL (3380 μM), Human Caco-2, BL→AP pH 7.4/7.4, individual wells) was 12.43 × 10^−6 cm/s. For the same compound, the Papp A→B at 120 min, 1 mg/mL ([4]; pH 6.8, 1 mg/mL (3380 μM), AP→BL pH 6.8/7.4, N = 2, read-out: Papp × 10^−6 Avg) was 11.6 ×10⁻⁶ cm/s, the Papp A→B at 120 min, 1 mg/mL ([4]; pH 6.8, 1 mg/mL (3380 μM), AP→BL pH 6.8/7.4, individual wells, read-out: Papp × 10^−6) was 12.2 ×10⁻⁶ cm/s and the Papp A→B at 120 min, 1 mg/mL ([4]; pH 7.4, 1 mg/mL (3380 μM), AP→BL pH 7.4/7.4, N = 2, read-out: Papp × 10^−6 Avg) was 12 ×10⁻⁶ cm/s. For the same compound, the Papp A→B at 120 min, 1 mg/mL ([4]; pH 7.4, 1 mg/mL (3380 μM), AP→BL pH 7.4/7.4, individual wells, read-out: Papp × 10^−6) was 12 ×10⁻⁶ cm/s, the Papp B→A at 120 min, 1 mg/mL ([4]; pH 7.4, 1 mg/mL (3380 μM), BL→AP pH 7.4/7.4, N = 2, read-out: Papp × 10^−6 Avg) was 11.5 ×10⁻⁶ cm/s and the Papp B→A at 120 min, 1 mg/mL ([4]; pH 7.4, 1 mg/mL (3380 μM), BL→AP pH 7.4/7.4, individual wells, read-out: Papp × 10^−6) was 10.9 ×10⁻⁶ cm/s. For the same compound, the Papp A→B ([1]; 1 mg/mL (3380 μM), AP→BL pH 6.8/7.4, individual wells) was 11.1 ×10⁻⁶ cm/s, the Papp A→B ([1]; 1 mg/mL (3380 μM), AP→BL pH 7.4/7.4, individual wells) was 12 ×10⁻⁶ cm/s and the Papp B→A ([1]; 1 mg/mL (3380 μM)) was 12 ×10⁻⁶ cm/s.
